Publication PMC10304372, “T-705-Derived Prodrugs Show High Antiviral Efficacies against a Broad Range of Influenza A Viruses with Synergistic Effects When Combined with Oseltamivir” (Pharmaceutics, 2023)
Where two headings read alike, the source gives them in different places.

Experiments:
in vitro = settings: dog
A/Victoria/03/75 (H3N2) = format: cell-based, influenza A virus
A/Anhui/1/13 (H7N9) = assay: microbe, parasite or virus in culture; format: cell-based, influenza A virus; settings: for IC50: read-out: IC50 H7N9
MDCKII cells = settings: for concentration from which considerable cell cytotoxicity was caused: dog
[1] = test system: A/Hamburg/NY1580/09 (H1N1); assay: microbe, parasite or virus in culture; format: cell-based, influenza A virus; settings: for IC50: read-out: IC50 H1N1
A/Vietnam/1194/04 (H5N1) = assay: microbe, parasite or virus in culture; format: cell-based, influenza A virus; settings: for IC90: read-out: IC90 (90% inhibitory effect on viral replication), H5N1
H5N1 HPAIV = format: cell-based, influenza A virus
[2] = test system: RdRP subunit PA (polymerase acidic protein); settings: cited from earlier work
[3] = Influenza A virus, H7N9, MDCK-II, 24 h
[4] = Influenza A virus, H1N1, MDCK-II, 24 h
[5] = Influenza A virus, H5N1, MDCK-II, 24 h, read-out: IC50 H5N1
[6] = Influenza A virus, H5N1, MDCK-II

Compound | CC50 (in vitro) [µM] | IC50 (A/Anhui/1/13 (H7N9); [3]) [µM] | IC50 [1, 4] [µM] | IC50 [1] [µM] | IC50 (A/Vietnam/1194/04 (H5N1); [5]) [µM] | IC50 (A/Vietnam/1194/04 (H5N1); read-out: IC50 H5N1) [µM] | antiviral activity against H3N2 IAV (in words) (A/Victoria/03/75 (H3N2)) | SI (selectivity index) H7N9 (A/Anhui/1/13 (H7N9)) | concentration from which considerable cell cytotoxicity was caused (MDCKII cells) [µM] | SI (selectivity index) H1N1 [1] | SI (selectivity index) H5N1 (A/Vietnam/1194/04 (H5N1)) | other results
NC(=O)c1nc(F)c[nH]c1=O [1a, T-705] | > 50 | 0.79 ± 0.54 | 1.29 | 1.29 ± 1.4 | 1.14 | 1.14 ± 1.17 |  |  |  |  |  | reduction of virus replication (A/Victoria/03/75 (H3N2)): approximately 1.5 logs; effect on cell viability (in words) (MDCKII cells): did not affect cell viability
NC(=O)c1ncc[nH]c1=O [1b, T-1105, reference compound] |  |  |  |  |  |  |  |  |  |  |  | reduction of virus replication (A/Victoria/03/75 (H3N2)): approximately 1.5 logs
NC(=O)c1nccn([C@@H]2O[C@H](CO)[C@@H](O)[C@H]2O)c1=O [2a, T-1106] |  |  |  |  |  |  | slightly higher activity compared to T-1105 1b |  |  |  |  | 
CCCCCCCCCC(=O)Oc1ccc(COP(=O)(OCc2ccc(OC(=O)CCCCCCCCC)cc2)OP(=O)(O)OC[C@H]2O[C@@H](n3ccnc(C(N)=O)c3=O)[C@H](O)[C@@H]2O)cc1 [3a] | > 50 | 0.07 | 0.13 ± 0.14 |  | 0.22 | 0.224 ± 0.23 | reduced viral titers to the limit of detection | 1179.0 | ≥ 30 | 643.9 | 373.7 | more active than 1a against H7N9 (A/Anhui/1/13 (H7N9)): 10 fold; reduction of H7N9 virus titers to the limit of detection (in words) (A/Anhui/1/13 (H7N9)): to the limit of detection; IC50 (A/Anhui/1/13 (H7N9)): 0.071 ± 0.09 µM; increase in antiviral activity compared to 1a (T-705), H1N1 [1]: 10 fold; IC1 (1% inhibitory effect on viral replication), H5N1 (A/Vietnam/1194/04 (H5N1)): 0.0005 µM; IC10 (10% inhibitory effect on viral replication), H5N1 (A/Vietnam/1194/04 (H5N1)): 0.0132 µM; reduction of H5N1 virus titers to the limit of detection (in words) (A/Vietnam/1194/04 (H5N1)): to the limit of detection; IC50 (A/Vietnam/1194/04 (H5N1); Influenza A virus, H5N1, MDCK-II, read-out: IC50, H5N1, as used for combination treatment): 0.267 µM; IC90 (A/Vietnam/1194/04 (H5N1); [6]): 5.4 µM; interaction with oseltamivir against H5N1 (in words) (H5N1 HPAIV): strong synergistic effect
CCCCCCCCCCCCCCC(=O)Oc1ccc(COP(=O)(OCc2ccc(OC(=O)CCCC)cc2)OP(=O)(O)OC[C@H]2O[C@@H](n3ccnc(C(N)=O)c3=O)[C@H](O)[C@@H]2O)cc1 (stereo partly drawn) [3b] | > 50 | 0.62 | 1.49 | 1.49 ± 2.36 | 0.12 | 0.116 ± 0.013 | reduced viral titers to the limit of detection | 158.2 | ≥ 30 | 66.4 | 850.9 | antiviral activity against H7N9 compared to 1a (comparable or fold reduced) (A/Anhui/1/13 (H7N9)): comparable; reduction of H7N9 virus titers to the limit of detection (in words) (A/Anhui/1/13 (H7N9)): to the limit of detection; IC50 (A/Anhui/1/13 (H7N9)): 0.624 ± 1.04 µM; reduction of H5N1 virus titers to the limit of detection (in words) (A/Vietnam/1194/04 (H5N1)): to the limit of detection
CCCCCCCCCC(=O)Oc1ccc(COP(=O)(OCc2ccc(OC(=O)CCCCCCCCC)cc2)OP(=O)(O)OP(=O)(O)OC[C@H]2O[C@@H](n3ccnc(C(N)=O)c3=O)[C@H](O)[C@@H]2O)cc1 [4a, T-1106-C9C9-TriPPPro] | > 50 | 2.02 ± 1.23 | 3.32 | 3.32 ± 4.41 | 0.31 | 0.314 ± 0.38 | modest reduction in viral replication | 71.5 | ≥ 30 | 43.6 | 460.2 | antiviral activity against H7N9 compared to 1a (comparable or fold reduced) (A/Anhui/1/13 (H7N9)): 2.5 fold
O=C1c2c(O)c(=O)ccn2N([C@@H]2c3ccccc3SCc3c2ccc(F)c3F)[C@@H]2COCCN12 [Baloxavir, baloxavir] |  |  |  |  |  |  |  |  |  |  |  | inhibitory activity on PA of various IAV subtypes incl. H5N1 and H7N9 (in words) [2]: pico- to nanomolar activity
CCOC(=O)C1=C[C@@H](OC(CC)CC)[C@H](NC(C)=O)[C@@H](N)C1 [oseltamivir] | > 100 |  |  |  |  |  |  |  |  |  |  | IC1 (1% inhibitory effect on viral replication), H5N1 (A/Vietnam/1194/04 (H5N1)): 0.00002 µM; IC10 (10% inhibitory effect on viral replication), H5N1 (A/Vietnam/1194/04 (H5N1)): 0.0005 µM; IC50 (A/Vietnam/1194/04 (H5N1); Influenza A virus, H5N1, MDCK-II, 24 h, read-out: IC50 H5N1 (oseltamivir)): 0.008 µM; IC90 (A/Vietnam/1194/04 (H5N1); [6]): 0.127 µM
